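These data come from cells grown in 96-well plates and exposed to compound for 48 hours at five concentrations. GI50 = concentration required for 50% inhibition of growth.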 Active and inactive are the calls of the source. Rule as the data show it: active = GI50 up to about 1.1 µM and inactive = higher.
Tests used:
Assay in all cases: NCI tumour cell line growth inhibition, 48 h
RXF 393 = system: RXF 393
CAKI-1 = system: CAKI-1
DU-145 = system: DU-145
NCI/ADR-RES = system: NCI/ADR-RES
TK-10 = system: TK-10
HOP-62 = system: HOP-62
SNB-19 = system: SNB-19
NCI-H23 = system: NCI-H23
SK-OV-3 = system: SK-OV-3
UO-31 = system: UO-31
OVCAR-3 = system: OVCAR-3
NCI-H226 = system: NCI-H226
BT-549 = system: BT-549
RPMI-8226 = system: RPMI-8226
HL-60 = system: HL-60
SK-MEL-5 = system: SK-MEL-5
SF-268 = system: SF-268
LOX IMVI = system: LOX IMVI
SK-MEL-28 = system: SK-MEL-28

Measured: GI50

CC(C)(CN1CCCCC1)C(=O)CC(SCCS(=O)(=O)O)c1ccc(Cl)cc1 (stereo unspecified)
inactive: RXF 393 3.1 µM | CAKI-1 6.73 µM | DU-145 9.75 µM | NCI/ADR-RES 5.97 µM | TK-10 6.32 µM | HOP-62 11.5 µM | SNB-19 14.8 µM | NCI-H23 3.88 µM | SK-OV-3 15.5 µM | UO-31 4.86 µM | OVCAR-3 5.22 µM | NCI-H226 12 µM | BT-549 8.04 µM | RPMI-8226 3.31 µM | HL-60 6.18 µM | SK-MEL-5 7.41 µM

Cc1ccc(C(=O)O)cc1S(=O)(=O)Nn1cnc2ccc(S(=O)(=O)Nc3ccccc3C(=O)O)cc2c1=O
inactive: SF-268 > 100 µM | LOX IMVI > 100 µM | CAKI-1 > 100 µM | DU-145 > 100 µM | NCI/ADR-RES > 100 µM | TK-10 > 100 µM | HOP-62 > 100 µM | SK-MEL-28 > 100 µM | SNB-19 > 100 µM | NCI-H23 > 100 µM | SK-OV-3 > 100 µM | UO-31 46.1 µM | OVCAR-3 > 100 µM | NCI-H226 83.8 µM | BT-549 > 100 µM | RPMI-8226 54.5 µM | HL-60 > 100 µM

OC12c3ccccc3C1CCCCCC21OCCCO1 (stereo unspecified)
inactive: SF-268 > 100 µM | LOX IMVI > 100 µM | RXF 393 > 100 µM | CAKI-1 > 100 µM | TK-10 > 100 µM | HOP-62 > 100 µM | SK-MEL-28 > 100 µM | SNB-19 > 100 µM | NCI-H23 > 100 µM | SK-OV-3 > 100 µM | UO-31 > 100 µM | OVCAR-3 > 100 µM | NCI-H226 > 100 µM | RPMI-8226 > 100 µM | HL-60 11.4 µM | SK-MEL-5 > 100 µM

Cc1cc(C)nc(NS(=O)(=O)c2ccc(NC(=O)c3c4ccccc4nc4ccccc34)cc2)n1
inactive: SF-268 > 100 µM | LOX IMVI 81.1 µM | CAKI-1 87.3 µM | DU-145 93.1 µM | NCI/ADR-RES > 100 µM | TK-10 82.2 µM | HOP-62 61.7 µM | SK-MEL-28 > 100 µM | SNB-19 > 100 µM | NCI-H23 44.2 µM | SK-OV-3 > 100 µM | UO-31 37.4 µM | OVCAR-3 56.9 µM | NCI-H226 35.9 µM | BT-549 96.4 µM | RPMI-8226 47.3 µM | SK-MEL-5 38.1 µM

CCSc1n/c(=C\c2ccco2)c2nncn12
inactive: SF-268 > 100 µM | LOX IMVI > 100 µM | DU-145 > 100 µM | NCI/ADR-RES > 100 µM | TK-10 > 100 µM | HOP-62 > 100 µM | SK-MEL-28 > 100 µM | SNB-19 > 100 µM | NCI-H23 > 100 µM | SK-OV-3 > 100 µM | UO-31 > 100 µM | OVCAR-3 > 100 µM | NCI-H226 > 100 µM | RPMI-8226 > 100 µM | HL-60 > 100 µM | SK-MEL-5 > 100 µM

CCC(C)(O)c1cn(-c2cccc(S(=O)(=O)O)c2)nn1 (stereo unspecified)
inactive: SF-268 > 100 µM | LOX IMVI > 100 µM | RXF 393 > 100 µM | CAKI-1 > 100 µM | TK-10 > 100 µM | HOP-62 > 100 µM | SK-MEL-28 > 100 µM | SNB-19 > 100 µM | NCI-H23 > 100 µM | SK-OV-3 > 100 µM | UO-31 > 100 µM | OVCAR-3 > 100 µM | NCI-H226 > 100 µM | RPMI-8226 > 100 µM | HL-60 > 100 µM | SK-MEL-5 > 100 µM

COC(=O)C(COC(=O)/C=C/c1ccc(OC(C)=O)c(OC(C)=O)c1)OC(=O)/C=C/c1ccc(OC(C)=O)c(OC(C)=O)c1 (stereo unspecified)
inactive: SF-268 12.4 µM | LOX IMVI 5.16 µM | RXF 393 12.3 µM | CAKI-1 6.87 µM | DU-145 12.1 µM | NCI/ADR-RES 20 µM | TK-10 18.6 µM | HOP-62 10.2 µM | SK-MEL-28 15.5 µM | SNB-19 8.32 µM | NCI-H23 12 µM | UO-31 10 µM | OVCAR-3 6.32 µM | NCI-H226 24.5 µM | BT-549 15.1 µM | RPMI-8226 11.6 µM | SK-MEL-5 14.8 µM

CCOc1ccc(/N=C(/NC(=O)c2ccccc2)SC)cc1
inactive: SF-268 > 100 µM | LOX IMVI > 100 µM | RXF 393 > 100 µM | CAKI-1 > 100 µM | TK-10 > 100 µM | HOP-62 > 100 µM | SK-MEL-28 > 100 µM | SNB-19 > 100 µM | NCI-H23 > 100 µM | SK-OV-3 > 100 µM | UO-31 > 100 µM | OVCAR-3 > 100 µM | NCI-H226 > 100 µM | RPMI-8226 > 100 µM | HL-60 > 100 µM | SK-MEL-5 > 100 µM

Cc1nc2c(O)cc3c4c(n(Cc5ccccc5)c3c2nc1C)C(=O)CCC4
inactive: SF-268 4.71 µM | LOX IMVI 64.1 µM | RXF 393 5.46 µM | DU-145 7.13 µM | NCI/ADR-RES 32.1 µM | TK-10 34 µM | HOP-62 12.7 µM | SK-MEL-28 22.5 µM | SNB-19 23.3 µM | NCI-H23 51.2 µM | SK-OV-3 14.6 µM | UO-31 56 µM | OVCAR-3 28.2 µM | NCI-H226 > 100 µM | RPMI-8226 > 100 µM | HL-60 > 100 µM | SK-MEL-5 25.5 µM

CN(C)[C@@H]1C(O)=C(C(=O)NCNCCCC(=O)O)C(=O)[C@@]2(O)C(O)=C3C(=O)c4c(O)cccc4[C@@](C)(O)[C@H]3C[C@@H]12
inactive: SF-268 > 100 µM | LOX IMVI > 100 µM | RXF 393 > 100 µM | CAKI-1 > 100 µM | TK-10 > 100 µM | HOP-62 > 100 µM | SK-MEL-28 > 100 µM | SNB-19 > 100 µM | NCI-H23 > 100 µM | SK-OV-3 > 100 µM | UO-31 > 100 µM | OVCAR-3 > 100 µM | NCI-H226 > 100 µM | RPMI-8226 > 100 µM | HL-60 > 100 µM | SK-MEL-5 > 100 µM

O=C(Nc1cc(Cl)c(Cl)cc1Cl)C(=O)C1C=CCS1(=O)=O (stereo unspecified)
inactive: SF-268 > 100 µM | LOX IMVI > 100 µM | RXF 393 > 100 µM | CAKI-1 > 100 µM | TK-10 > 100 µM | HOP-62 > 100 µM | SK-MEL-28 > 100 µM | SNB-19 > 100 µM | NCI-H23 > 100 µM | SK-OV-3 > 100 µM | UO-31 > 100 µM | OVCAR-3 > 100 µM | NCI-H226 87.3 µM | RPMI-8226 > 100 µM | HL-60 > 100 µM | SK-MEL-5 > 100 µM

COc1ccc(OC)c2c3c(ccc12)C(c1ccccc1)OC3=O (stereo unspecified)
inactive: SF-268 > 100 µM | LOX IMVI 56.5 µM | RXF 393 39.9 µM | CAKI-1 55.1 µM | TK-10 60.4 µM | HOP-62 73.5 µM | SK-MEL-28 52.4 µM | SNB-19 > 100 µM | NCI-H23 17.7 µM | SK-OV-3 > 100 µM | UO-31 36.8 µM | OVCAR-3 25.8 µM | NCI-H226 > 100 µM | RPMI-8226 24.9 µM | HL-60 33.7 µM | SK-MEL-5 47.5 µM

— ChEMBL document CHEMBL1201862, “PubChem BioAssay data set” (2004)
